Data from publication PMC8190884 (ACS Omega, 2021).
Marks after values point to notes of the source that are not given here.

What was measured:
HIV RT [1] = assay: Primer extension inhibition assay on a 100-nt DNA template; assay type: biochemical, HIV-1; settings: 5 μM dNTPs, 3 μM analogue, 0.5 or 6 mM Mg2+, 30 min
HIV RT [2] = assay: Steady-state incorporation of 3′-O-CH3 dTTP by HIV RT; assay type: biochemical, HIV-1; settings: 100 μM 3′-O-methyl dTTP; for kobs ± standard deviation (steady-state): 20 nM primer–template, 20 nM RT, 30 min
[3] = target: T1, HIV reverse transcriptase (RT) (Human immunodeficiency virus type 1 group M subtype B, UniProt P04585); assay: Pre-steady-state observed incorporation rate constant; assay type: biochemical, HIV-1; settings: 5 μM nucleotide; for kobs ± standard deviation: 37 °C
[4] = target: T1, HIV reverse transcriptase (RT); assay: Pre-steady-state determination of KD and kpol; assay type: biochemical, HIV-1; settings: for kpol (maximum incorporation rate) / Kd: curve fit ± standard error; for Kd: Kd (equilibrium dissociation constant)
HIV RT [5] = settings: 6 mM Mg2+, different template; ref manuscript in preparation; cited from earlier work
HIV = settings: cited from earlier work

SMILES | 6/0.5 mM Mg2+ with the same nucleotide (ratio of kobs; fold slower in 0.5 mM) [3] | relative rate vs dTTP same [Mg2+] ([3]; 0.5 mM Mg2+) | kobs ± standard deviation ([3]; 0.5 mM free Mg2+) [s^–1] | relative rate vs dTTP same [Mg2+] ([3]; 6 mM Mg2+) | kobs ± standard deviation ([3]; 6 mM Mg2+) [s^–1] | also measured
CO[C@H]1C[C@H](n2cc(C)c(=O)[nH]c2=O)O[C@@H]1COP(=O)(O)OP(=O)(O)OP(=O)(O)O [3′-O-methyl dTTP] | – | – | – | – | – | inhibition of primer extension (terminated vs fully extended products), in words (HIV RT [1]): no inhibition; 6/0.5 mM Mg2+ with the same nucleotide (steady-state rates) (HIV RT [2]): 5.4; kobs ± standard deviation (steady-state) (HIV RT [2]; 0.5 mM Mg2+): 3.3 × 10^–5± 0.6 × 10^–5 ^c nM/min; kobs ± standard deviation (steady-state) (HIV RT [2]; 6 mM Mg2+): 1.8 × 10^–4± 0.2 × 10^–4 ^c nM/min
CC[C@]1(COP(=O)(O)OP(=O)(O)OP(=O)(O)O)O[C@@H](n2cc(C)c(=O)[nH]c2=O)C[C@@H]1O [4′-C-ethyl dTTP] | – | 0.15 | 1.3 ± 0.1 | 0.28 | 3.9 ± 0.4 | incorporation rate, fold faster than D-carba dTTP ([3]; 6 mM Mg2+): about 3 fold; inhibition of primer extension (terminated vs fully extended products), in words (HIV RT [1]): less effective
Cc1cn([C@H]2C[C@H](N=[N+]=[N-])[C@@H](CO[P@](=O)(O)O[P@](=O)(O)OP(=O)(O)O)O2)c(=O)[nH]c1=O [AZTTP] | 4.5 | 0.23 | 2.0 ± 0.5 | 0.63 | 8.9 ± 1.9 | fold slower kobs compared to dTTP ([3]; 6 mM (high) Mg2+): about 2 fold; efficiency decline (fold decline in kpol/Kd relative to dTTP at the same Mg2+) ([4]; 0.5 mM Mg2+): 7.2 fold; kpol/Kd (catalytic efficiency) ([4]; 0.5 mM Mg2+): 0.6; kpol (maximum incorporation rate) ([4]; 0.5 mM Mg2+): 3.3 ± 0.3 s^–1; efficiency decline (fold decline in kpol/Kd relative to dTTP at the same Mg2+) ([4]; 6 mM Mg2+): 1.5 fold; kpol (maximum incorporation rate) ([4]; 6 mM Mg2+): 17.0 ± 0.6 s^–1; Kd ([4]; 0.5 mM Mg2+): 5.5 ± 1.7 µM
Cc1cn([C@@H]2C[C@H](COP(=O)(O)OP(=O)(O)OP(=O)(O)O)[C@@H](O)C2)c(=O)[nH]c1=O [D-carba dTTP] | not strongly affected | 0.13 | 1.1 ± 0.5 | 0.092 | 1.3 ± 0.1 | KD, fold higher than 4′-C-ethyl and 4′-C-methyl dTTP (HIV RT [5]): 4–8 fold; inhibition of primer extension (terminated vs fully extended products), in words (HIV RT [1]): by far the weakest inhibitor; inhibition of primer extension (terminated vs fully extended products), in words (HIV RT [1]; listed as D-carba): weak inhibitor under both conditions
Cc1cn([C@H]2C=C[C@@H](COP(=O)(O)OP(=O)(O)OP(=O)(O)O)O2)c(=O)[nH]c1=O [d4TTP, 2′,3′-didehydro-2′,3′-dideoxythymidine triphosphate] | 4.6 | 0.21 | 1.8 ± 0.7 | 0.59 | 8.3 ± 0.8 | fold slower kobs compared to dTTP ([3]; 6 mM (high) Mg2+): about 2 fold; efficiency decline (fold decline in kpol/Kd relative to dTTP at the same Mg2+) ([4]; 0.5 mM Mg2+): 6.7 fold; kpol/Kd (catalytic efficiency) ([4]; 0.5 mM Mg2+): 0.64; kpol (maximum incorporation rate) ([4]; 0.5 mM Mg2+): 4.9 ± 0.5 s^–1; efficiency decline (fold decline in kpol/Kd relative to dTTP at the same Mg2+) ([4]; 6 mM Mg2+): 3.2 fold; kpol/Kd (catalytic efficiency) ([4]; 6 mM Mg2+): 1.9; kpol (maximum incorporation rate) ([4]; 6 mM Mg2+): 22.3 ± 1.7 s^–1
Nc1ncnc2c1ncn2[C@H]1CC[C@@H](CO[P@@](=O)(O)O[P@](=O)(O)OP(=O)(O)O)O1 [ddATP] | – | – | – | – | – | selectivity index, fold lower than that for AZT (HIV): about 4.5 fold

Further lines, with some results ahead:

6/0.5 mM Mg2+ with the same nucleotide (ratio of kobs; fold slower in 0.5 mM) [3] | relative rate vs dTTP same [Mg2+] ([3]; 0.5 mM Mg2+) | kobs ± standard deviation ([3]; 0.5 mM free Mg2+) [s^–1] | relative rate vs dTTP same [Mg2+] ([3]; 6 mM Mg2+) | kobs ± standard deviation ([3]; 6 mM Mg2+) [s^–1] | SMILES | also measured
3.8 | 0.094 | 0.81 ± 0.13 | 0.22 | 3.1 ± 0.1 | Cc1cn([C@H]2C[C@H](N)[C@@H](COP(=O)(O)OP(=O)(O)OP(=O)(O)O)O2)c(=O)[nH]c1=O [3′-amino dTTP] | fold slower kobs compared to dTTP ([3]; 0.5 mM (low) Mg2+): > 10 fold
2.8 | 0.063 | 0.54 ± 0.13 | 0.11 | 1.5 ± 0.1 | Cc1cn([C@H]2C[C@H](F)[C@@H](COP(=O)(O)OP(=O)(O)OP(=O)(O)O)O2)c(=O)[nH]c1=O [3′-fluoro dTTP] | fold slower kobs compared to dTTP ([3]; 0.5 mM (low) Mg2+): > 10 fold
0.88 | 0.52 | 4.5 ± 1.4 | 0.28 | 3.9 ± 2.8 | Cc1cn([C@H]2C[C@H](O)[C@@](C)(COP(=O)(O)OP(=O)(O)OP(=O)(O)O)O2)c(=O)[nH]c1=O [4′-C-methyl dTTP] | incorporation rate, fold faster than D-carba dTTP ([3]; 6 mM Mg2+): about 3 fold
1.6 | 1 | 8.6 ± 1.3 | 1 | 14.1 ± 1.2 | Cc1cn([C@H]2C[C@H](O)[C@@H](CO[P@](=O)(O)O[P@@](=O)(O)OP(=O)(O)O)O2)c(=O)[nH]c1=O [dTTP, Deoxythymidine triphosphate] | efficiency decline (fold decline in kpol/Kd relative to dTTP at the same Mg2+) ([4]; 0.5 mM Mg2+): 1 fold; kpol/Kd (catalytic efficiency) ([4]; 0.5 mM Mg2+): 4.3; kpol (maximum incorporation rate) ([4]; 0.5 mM Mg2+): 14.3 ± 0.8 s^–1; efficiency decline (fold decline in kpol/Kd relative to dTTP at the same Mg2+) ([4]; 6 mM Mg2+): 1 fold; kpol/Kd (catalytic efficiency) ([4]; 6 mM Mg2+): 6.0; kpol (maximum incorporation rate) ([4]; 6 mM Mg2+): 25.0 ± 1.3 s^–1; Kd ([4]; 0.5 mM Mg2+): 3.3 ± 0.6 µM; Kd ([4]; 6 mM Mg2+): 4.2 ± 0.7 µM
5.1 | 0.16 | 1.4 ± 0.7 | 0.51 | 7.2 ± 1.0 | Cc1cn([C@H]2CC[C@@H](COP(=O)(O)OP(=O)(O)OP(=O)(O)O)O2)c(=O)[nH]c1=O [ddTTP, dideoxy TTP] | fold slower kobs compared to dTTP ([3]; 6 mM (high) Mg2+): about 2 fold
